A short description of this data set: pKA values by half-equivalence method. The note with it: for pKa: amine in water, half neutralized with hydrochloric acid; for pKa decrease from 20 °C to 120 °C (pKa at 20 °C − pKa at 120 °C): difference between 20° C. and 120° C. Format: physicochemical. How it is done: The pKA values are suitably measured in aqueous solution with an amine concentration of 0.01 to 0.05 mol/kg at the specified temperature by determining the pH at the half-equivalence point, as shown, for example, by the working examples.
The pKA values of various amines were determined by means of the half-equivalence method. For this purpose, the amines were dissolved in water with a concentration of […] and partly neutralized with half the molar amount of hydrochloric acid (0.005 to 0.025 mol/L). The mass of the amine solutions was 250 g. […] The measurements were conducted at 20 and 120° C. The pH electrode used was the “Hamilton Polylite Plus 120” model, which is calibrated with pH 7 and pH 12 buffer solutions. The measurement was effected in a thermostated closed jacketed vessel with nitrogen blanketing.

Where [1] appears, read: 20° C., read-out: pKA at 20° C.
Setting [2] is: 120° C., read-out: pKA at 120° C.

Where two headings read alike, the source gives them in different places.

For the molecule `CN(C)C1CC(C)(C)NC(C)(C)C1` [DATP, 4-dimethylamino-2,2,6,6-tetramethylpiperidine], the “pKa decrease from 20 °C to 120 °C (pKa at 20 °C − pKa at 120 °C)” value stood at 2.6. In addition, the pKa under setting [1] came out at 10.7. In addition, under setting [2], the pKa was 8.1.

For `CC1(C)CC(O)CC(C)(C)N1` [TAAol, 4-hydroxy-2,2,6,6-tetramethylpiperidine], the “pKa decrease from 20 °C to 120 °C (pKa at 20 °C − pKa at 120 °C)” value was 2.6. Under setting [1], the pKa was 10.2. The pKa under setting [2] was 7.6.

For orientation: pKa means the pH at which an ionisable group is half protonated.

Values taken from patent publication US10493398B2, “Cyclic amine for selectively removing hydrogen sulphide” (BASF SE, priority 2015, dated 2019).
